What all share (type): in vivo
Assay [1] concerns Steinernema carpocapsae infective juveniles. In words: S. carpocapsae host-finding assay (non-target nematode). The note with it: S. carpocapsae IJs, 100 μM, 24 h; no statistically significant impact; control 0.2315. On the procedure: S. carpocapsae were cultured in Galleria mellonella at 23° C. Infective juveniles (IJs) were collected using a White trap in PBS. Freshly emerged IJs were used for each assay. 100 IJs were incubated for 24 hours in 100 μM of selected uNLPs, and host-finding assays performed as in Morris et al..

Assay [2] concerns Globodera pallida J2s. The assay can be described thus: Tomato invasion assay, G. pallida J2s. The note with it: exogenous pre-treatment of J2s. As to the method:
(§1) Predicted uNLPs from both M. incognita and G. pallida were synthesised by EZBiolab and dissolved into pH adjusted ddH2O to make a 5 mM stock which was aliquoted and stored at −20° C. J2s of both M. incognita and G. pallida were incubated for 24 hours in 200 μl of each peptide in a 24 well plate (SPL Lifesciences, South Korea) at a defined concentration.
Tomato seeds were sterilised with 2.5% NaOCl for 15 minutes, washed 5 times in ddH2O and germinated on 0.5% Murashige and Skoog plates at 23° C. […] Invasion assays were performed by mixing 500 pre-treated M. incognita or G. pallida J2s with agar slurry and a single tomato seedling (2 days post germination) in a 6 well plate. Assays were left at 23° C. for 24 hours in the case of M. incognita and at 18° C. for 24 hours in the case of G. pallida under a 16 hour light and 8 hour darkness cycle. Seedlings were stained using acid fuschin [69] and the number of nematodes within the roots counted.

The test system of assay [3] is Meloidogyne incognita infective stage juveniles (J2s). In words: Chemosensory (chemotaxis) assay towards root exudate, M. incognita J2s. The following applies: for chemotaxis index (Cl) towards root exudate: M. incognita J2s. On the procedure: as §1
(§2) A 60 mm Petri dish was divided into two segments, a positive and a negative side, with a 0.5 cm ‘dead zone’ either side of the centre point. The petri dish was filled with 15 ml of 0.25% w/v agar which was allowed to solidify. 3 ml of 0.25% w/v agar slurry in spring water (pH 7, agitated with a magnetic stirrer for several hours to give a smooth consistency) was added to the petri dish and spread evenly over the surface. Root diffusate (attractant) and water only (control) 0.25% agar plugs were embedded in the agar slurry, either side of the assay arena. Root diffusate was collected from 10 tomato plants, aged 3-6 weeks in 1 litre pots, by pouring 500 ml of ddH2O through the soil three times. Diffusate from each plant was combined, filter sterilised and stored at 4° C. for a maximum of 1 month. Root diffusate agar plugs were made by melting 1.25% agar in ddH2O, cooling to 50° C. before mixing with 4 parts of root diffusate. The agar was then allowed to solidify at room temperature. 100 uNLP pre-treated M. incognita or G. pallida J2s were added by pipette to the centre of the plate. J2s which moved out of the ‘dead zone’ after 3 hours were counted and their location (+/−) scored. The distribution of J2s were used to create a chemotaxis index for each plate, which formed one replicate, a total of 10 replicates where completed for each uNLP treatment.

Assay [4] deals with Globodera pallida infective stage juveniles (J2s). In words: Chemosensory (chemotaxis) assay towards root exudate, G. pallida J2s. The following applies: 100 μM uNLP, 24 h, mean+/-SEM. As to the method: as §1, §2

These results are taken from patent US20200123208A1, “PEPTIDES AND NEMATICIDAL COMPOSITIONS” (priority 2017, published 2020).

For the sequence SFDSFTGPGFTGLD [Mi-NLP-15b], the “insect host-finding index (Cl) towards Galleria mellonella” value in assay [1] is recorded as 0.2225+/−0.043. Moreover, in assay [2], the “effect of exogenous peptide exposure on G. pallida host invasion (in words)” value is reported as “does not inhibit host invasion”. Also, the “chemotaxis index (Cl) towards root exudate” value is −0.3408+/−0.2207 in assay [3] (100 μM uNLP, 24 h, mean+/-SEM); 0.03117+/−0.1594 in assay [3] (Mi-NLP-15b 100 pM, 24 h); −0.07105+/−0.1534 in assay [3] (Mi-NLP-15b 1 nM, 24 h); −0.1741+/−0.1724 in assay [3] (Mi-NLP-15b 10 nM, 24 h); −0.1195+/−0.1968 in assay [3] (Mi-NLP-15b 100 nM, 24 h); −0.1344+/−0.1733 in assay [3] (Mi-NLP-15b 1 μM, 24 h). In addition, the “chemotaxis index (Cl) towards root exudate” value in assay [3] (Mi-NLP-15b 10 μM as printed (last of the series, after 100 pM), 24 h) is on record as −0.1553+/−0.2642; in assay [3] (Mi-NLP-15b 10 μM, 24 h (dilution series)), −0.03579+/−0.1504; in assay [3] (Mi-NLP-15b 100 μM, 24 h (dilution series)) it was −0.3782+/−0.07224; in assay [4], −0.04762+/−0.1983. Besides, the “lowest concentration inhibiting M. incognita chemosensation” value in assay [3] (serial dilution, 24 h exposure) amounted to 10 pM.
